These results are taken from patent US8551722B2, “Time-course measurement of enzymatic activity corrected for impacts of disturbances relating to the reaction of the enzyme with a substrate” (Synapse B.V., priority 2008, dated 2013).

Holding throughout (type): biochemical
Assay [1] addresses T1, thrombin (Homo sapiens, UniProt P00734). Put plainly: Km of chromogenic thrombin substrates, obtained in buffer. Conditions: obtained in buffer and not in plasma. From the text:
(NB: The Km values have been obtained in buffer and not in plasma but any value of Km between 0.5 and 2 times the present one would have allowed similar conclusions as to the suitability in thrombingenration experiments)

The target of assay [2] is T1, thrombin. Put plainly: Diagnostic plot (dOD/dt against OD) of chromogenic substrates at fixed thrombin activity, to judge use in thrombin generation measurement. As for the experimental part: A suitable chromogenic substrate, i.e. a substrate from which a chromogenic group is split when acted upon by the enzyme to be measured (thrombin, plasmin etc), is added to the reaction mixture. Unless otherwise indicated, for thrombin generation, this mixture consists of four parts of defibrinated plasma, one part of trigger solution and one part of start solution. The reactions can be carried out in a spectrophotometer cuvette, a 96 well plate to be read in a photometric well-plate reader or in a laboratory automaton as e.g. the Cobas Bio and Cobas Fara centrifugal analysers (F. Hoffmann-La Roche, Basel, Switzerland). In short in any device capable of measuring the optical density at 405 nm at 30 s intervals during 10 to 30 min.
Typically 80 μL of defibrinated plasma with 20 μL of rTF without Ca2+ are incubated at 37° C., during a time sufficient for temperature equilibration. Thrombin generation is started by adding 20 μL of a pre-warmed start solution containing 100 mM CaCl2 and 3 mM substrate. After the start of the reaction the optical density at 405 nm is recorded at intervals of maximally 30 s for the time required (≧15 min). Depending upon the measuring device a multiple of the volumes can be used.
This amount is determined by the maximal enzyme potential (η) that to be expected in the experiments. […] In the experiment to obtain the diagnostic plot the enzyme concentration (E) is constant and known. So the enzyme potential (η) is known and can be rendered In the diagnostic plot (curved thin lines in FIG. 8).
In this table η indicates the enzyme potential that is to be expected in the thrombingeneration experiment and limit indicates the limit of enzyme potential that can be measured with the indicated substrate at the indicated concentration.
In FIG. 8 it is seen that straight lines fit through the data over the whole range of ODs measured for three of the four substrates tested. For one (S2238) the straight line fits only up to mOD˜650.

Assay [3] addresses T1, thrombin. Put plainly: Diagnostic plot of fluorogenic substrates measured in bulk fluid, to judge use in thrombin generation measurement. Also noted: from tissue; host or cells: blood plasma of healthy human donors. The note with it: 1 mM substrate, judged from the diagnostic plot. As for the experimental part: The development of fluorescence intensity from aminomethylcoumarine (AMC) is typically measured in a 96-well plate fluorometer (Ascent reader, Thermolabsystems OY, Helsinki Finland) equipped with a 390/460 filter set (excitation/emission) and a dispenser. Immulon 2HB, round-bottom 96-well plates (Dynex) are used. Minimally four readings are done per minute and experiments are carried out in quadruplicate unless otherwise indicated.
To each well, 80 μl of plasma is added. Wells in which TG is measured receive 20 μl of buffer, containing the trigger but no Ca^2+.
Wells in which constant thrombin-like activity is to be measured receive 20 μl of the α2M-thrombin solution at the required concentration as indicated. For PPP, the trigger is 30 pM of recombinant tissue factor (TF) and 24 μM phosphatidyl-serine/phosphatidyl-choline/phosphatidyl-ethanolamine vesicles in Hepes-buffered saline. For PRP the trigger is 20 μl of 3 pM of rTF without added PL.
The plate is placed in the fluorometer and allowed to warm to 37° C. (minimally 15 min). The dispenser of the fluorometer is flushed with warm 100 mM CaCl2 solution, emptied, and then flushed with a prewarmed (37° C.) solution of the substrate in Hepes buffer with 60 g/L bovine serum albumin (FluCa). At the start of the experiment, the instrument dispenses 20 μl of FluCa to all the wells to be measured, registers this as zero time, shakes them for 10 s and starts reading.
A similar approach as that of example 4 can be applied to fluorogenic substrates. The substrates, previously described in ref [35] were, from left to right are BZ-Phe-Val-Arg-AMC, Z-Gly-Pro-Arg-AMC and Z-Pro-Arg-AMC, all tested at a concentration of 1 mM in the setup described under methods.
The scaling factor necessary to convert the arbitrary dF/dt values into nM thrombin is derived from the measurement of the amidolytic activity on a thrombin substrate of the material remaining after thrombin generation is over, as in example 3.

Setting [4] is: S 50 μM, E 250 nM (MSC), 300 nM (SQ68).
Where [5] appears, read: S 100 μM, E 0.4 nM (S2238), 250 nM (MSC), 300 nM (SQ68).
[6] abbreviates: S 150 μM, E 250 nM (MSC), 300 nM (SQ68).

Residues, ends and D or L forms follow the SMILES beside them. *: point of attachment. AMC = Cc1cc(=O)oc2cc(N*)ccc12; Cbz = O=C(OCc1ccccc1)*; Bz = O=C(c1ccccc1)*

What is called Km is the concentration of substrate that gives half-maximal velocity. With `COC(=O)CC(=O)NC(C)(C)C(=O)NC(CCCNC(=N)N)C(=O)Nc1ccc([N+](=O)[O-])cc1.Cl` (stereo not drawn) [SQ68, Malonyl-α-aminoisobutyryl-arginine para-nitroanilide methyl ester-HCl], the Michaelis-Menten constant (Km) at thrombin [1] came out at 830 µM. For the same compound, the results for the “η (enzyme potential to be expected in the thrombin generation experiment)” value on thrombin [2] (S 50 μM), on thrombin [2] (S 100 μM) and at thrombin [2] (S 150 μM) were 1.06 µM·min, 1.12 µM·min and 1.18 µM·min, respectively. For the same compound, the “limit (limit of enzyme potential that can be measured with the substrate at the indicated concentration)” value (“limit” for short) at thrombin [2] (setting [4]), on thrombin [2] (setting [5]) and on thrombin [2] (setting [6]) was above 30 nM·min in each case.
Consider `Cc1cc(=O)oc2cc(NC(=O)[C@H](CCCN=C(N)N)NC(=O)[C@@H](NC(=O)[C@H](Cc3ccccc3)NC(=O)c3ccccc3)C(C)C)ccc12` [BZ-Phe-Val-Arg-AMC] (Bz-Phe-Val-Arg-{AMC}), for which, at thrombin [3], the “suitability for the measurement of thrombin generation (fluorogenic substrates)” value (“suitability … (fluorogenic substrates)” below) is recorded as “can be used for the measurement of thrombin generation”.
DEMZ-Gly-Arg-pNA: the Km at thrombin [1] was determined as 866 µM. In addition, the “η (enzyme potential to be expected in the thrombin generation experiment)” value at thrombin [2] (S 500 μM) worked out at 1.58 µM·min. Besides, on thrombin [2] (S 500 μM, E 50 nM), the “limit” value was above 2 nM·min.
For `NC(N)=NCCC[C@H](NC(=O)[C@@H]1CCCCN1C(=O)[C@H](N)Cc1ccccc1)C(=O)Nc1ccc([N+](=O)[O-])cc1` [S2238, HD-Phe-Pip-Arg-pNA], the Km at thrombin [1] came to 10 µM. In addition, at thrombin [2] (FIG. 8), the “OD up to which the straight line fits the diagnostic plot” value is listed as around 650 mOD. In addition, the “η (enzyme potential to be expected in the thrombin generation experiment)” value at thrombin [2] (S 100 μM) was found to be 11 µM·min. Moreover, the “limit” value at thrombin [2] (setting [5]) was 0.014 nM·min. Besides, the “enzyme potential read from the plot at the OD where the straight line stops fitting” value on thrombin [2] (at mOD ~650) was around 12.5 nM·min. The “ETP to be measured in the presence of this substrate” value on thrombin [2] (due to tight binding and inhibition of natural antithrombins) was found to be 11000 nM·min. Also, the “suitability for the measurement of thrombin generation (chromogenic substrates)” value at thrombin [2] (judged from the diagnostic plot) was “unsuitable for the measurement of thrombin generation”.
Take `Cc1cc(=O)oc2cc(NC(=O)[C@H](CCCN=C(N)N)NC(=O)[C@@H]3CCCN3C(=O)CNC(=O)OCc3ccccc3)ccc12` [Z-Gly-Pro-Arg-AMC] (Cbz-Gly-Pro-Arg-{AMC}): the “suitability … (fluorogenic substrates)” value on thrombin [3] is “turnover number that is so high as to have the substrate consumed before thrombin generation is over”.
As for `Cc1cc(=O)oc2cc(NC(=O)C(CCCN=C(N)N)NC(=O)C3CCCN3C(=O)OCc3ccccc3)ccc12` (stereo not drawn) [Z-Pro-Arg-AMC] (Cbz-Pro-Arg-{AMC}; configuration not given here), at thrombin [3], the “suitability … (fluorogenic substrates)” value is reported as “can be used for the measurement of thrombin generation”.
Consider `CC(C)C(NC(=O)OCCS(C)(=O)=O)C(=O)NC(CCCN=C(N)N)C(=O)Nc1ccc([N+](=O)[O-])cc1` (stereo not drawn) [MSC, Msc-Val-Arg-pNA], for which the Km on thrombin [1] is 882 µM. Moreover, the “η (enzyme potential to be expected in the thrombin generation experiment)” value worked out at 1.06 µM·min at thrombin [2] (S 50 μM), 1.11 µM·min at thrombin [2] (S 100 μM) and 1.17 µM·min on thrombin [2] (S 150 μM). For the same compound, the “limit” value at thrombin [2] (setting [4]), at thrombin [2] (setting [5]) and on thrombin [2] (setting [6]) was above 15 nM·min each time.
